Assay results from article PMC12196476, “New Nitrogen-, Oxygen-, and Sulfur-Containing Heterocyclic Compounds as Anti-Colon Cancer Agents: Synthesis, Multitargeted Evaluations, Molecular Docking Simulations and ADMET Predictions” (Pharmaceuticals, 2025).

Key:
[1] = target: recombinant human LDHA protein (Homo sapiens, UniProt P00338); assay: In vitro LDHA inhibitory assay (NADH consumption); type: biochemical; conditions: for inhibition at 100 µg/mL: three replicates, read-out: Mean Inhibition Percent ± SD, LDHA; for IC50: three independent experiments, read-out: Mean IC50 µM ± SD, LDHA
Source text: The LDHA inhibitory efficiencies were investigated on Spectramax M2 spectrofluorometer via measuring the amounts of the consumed NADH^40 using an NAD^+/NADH quantification kit. […]
S3.2.3. In vitro LDHA inhibitory assay.
The LDHA inhibitory activity of the test compounds was investigated using Spectramax M2
spectrofluorometer by measuring the amounts of the consumed NADH [42] employing
NAD+/NADH quantification kit. Briefly, the assay medium containing various concentrations of
each test compound (50, 100, 200 and 300 μg/mL) was incubated in assay medium composed of 20
mM of HEPES-K+ buffer (pH 7.2), 20 μM of NADH, 2 mM of pyruvate and 10 ng of purified
recombinant human LDHA protein for 10 min utes. The activity of LDHA would result in reduction
of pyruvate into lactate with concomitant oxidation of NADH to NAD +. Since NADH (reduced
LDHA, could be inversely quantified by monitoring the change in the intensity of the fluorescence
at 340 nm over a 10-minute period. The rate of the fluorescence change (slope) in treated samples
was compared to that obtained from negative control experiment (100 % enzymatic activity) to
determine the percentage of inhibition. The IC50 value—defined as the compound concentration
required to reduce the luminescence by 50%, compared to untreated control wells—was
determined for each compound from the corresponding dose–response curve generated by
plotting LDHA inhibition (%) against compound concentration.
was used as the reference LDHA inhibitor. […]

[2] = tested on: HCT-116 colon carcinoma cells; assay: Cell viability, LDH release assay, HCT-116; conditions: Homo sapiens, HCT-116, 48 h; for viability at 100 µg/mL: read-out: Mean % of viable cells ± SD, HCT-116, 100 µg/mL, 48 h, LDH release assay; for IC50: read-out: Mean IC50 Values in µM ± SD, HCT-116 cells
Method: (§1) The studied compounds were also screened for their cytotoxic effects on HCT-116 and LoVo colon carcinoma cells, as well as normal HUVECs, using the standard LDH assay at a concentration of 100 µg/mL.
(§2) The antiproliferative activities of the newly synthesized compounds 3a–e, 8, 9a–c, 13, 14, 17, 18a–h, 20, 22, 23 and 25 were examined on human colon HCT-116 and LoVo cell lines as well as HUVEC (American Type Culture Collection, Manassas, VA, USA). […]
(§3) S3.2.4. Cell culture and viability assay.
(§4) The cytotoxic activities of the newly synthesized compounds (3a-e, 8, 9a-c, 13, 14, 17, 18a-h, 20, 22,
(§5) 23, and 25) were examined on human colon cancer cell lines HCT-116 and Lovo (American Type
(§6) Culture Collection, USA). Various concentrations (50, 100, 200, and 400 μg/mL) of test compounds
(§7) were prepared in Dulbecco’s Modified Eagles Medium (PAN-Biotech, Barcelona, Spain),

PDK-1 = PDK-1 (Homo sapiens, UniProt Q15118); assay: In vitro PDK-1 inhibition assay (Kinase-Glo luminescent kinase kit); type: biochemical; conditions: for inhibition at 100 µg/mL: three replicates, read-out: Mean Inhibition Percent ± SD, PDK-1; for IC50: three independent experiments, read-out: Mean IC50 µM ± SD, PDK-1
PDK-1, sequence (Q15118 29-436): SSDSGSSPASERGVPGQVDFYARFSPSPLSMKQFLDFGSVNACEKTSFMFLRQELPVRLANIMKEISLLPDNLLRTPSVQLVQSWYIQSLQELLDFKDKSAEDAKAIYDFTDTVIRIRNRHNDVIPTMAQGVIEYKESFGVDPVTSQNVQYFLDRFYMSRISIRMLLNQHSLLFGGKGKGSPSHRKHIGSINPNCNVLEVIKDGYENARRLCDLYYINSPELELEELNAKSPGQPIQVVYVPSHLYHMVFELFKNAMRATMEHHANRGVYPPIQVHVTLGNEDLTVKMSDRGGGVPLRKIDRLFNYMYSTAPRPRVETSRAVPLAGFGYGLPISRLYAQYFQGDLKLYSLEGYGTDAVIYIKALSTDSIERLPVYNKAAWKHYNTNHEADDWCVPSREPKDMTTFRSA
Method: Principally, the PDK-1 inhibitory activities were evaluated using the non-radioactive Kinase-Glo™ Luminescent Kinase Kit (Promega Corporation, Madison, WI, USA) following the instructions of the manufacturer.
S3.2.2. In vitro PDK-1 inhibition assay.
The PDK-1 inhibitory activities of the test compounds were evaluated using the non-radioactive
Kinase-Glo™ Luminescent Kinase kit (Promega Corporation, Madison, WI, USA), following the
manufacturer’s protocol. Briefly, 5 μL of assay buffer—containing 10 × 250 mM Tris-HCl, 50 mM
MgCl2, 5 mM ethyleneglycol-bis(β-aminoethylether)-N,N,N′,N′-tetraacetic acid (EGTA), 10 mM
ethylenedi- aminetetraacetic acid (EDTA), and 10 mM dithiothreitol (DTT)—was added to each
well of a 96-well plate, along with 25 μL of distilled water. Subsequently, 5 μL of each test
compound at various concentrations (50, 100, 200 and 300 μg/mL in 1% DMSO) was added to the
respective wells, except for the two control wells, which received 5 μL of either PBS buffer or 1%
DMSO. Then, 5 μL of pyruvate dehydrogenase E1 (PDH E1) protein (10 μM) and 5 μL of ATP
(10 μM) were added to each well. To initiate phosphorylation, 5 μL of PDK-1 (20 μM) in protein
buffer (1 mM MgCl2, 2000 mM KCl, 40 mM K3PO4) was added to all the wells except the control
wells, which received 5 μL of protein buffer instead. The plate was then mixed thoroughly and
incubated at 37 °C for 30 minutes. After incubation, 50 μL of kinase-Glo® reagent was added to each
well, followed by a 10-minute incubation at room temperature with gentle shaking to stabilize the
luminescent signal. Luminescence was then measured using a microplate reader.
The IC50 value—defined as the concentration of a compound required to reduce luminescence by
50%, compared to untreated control wells—was determined for each compound from the
corresponding dose–response curve generated by plotting PDK-1 inhibition (%) versus compound
concentration. Sodium dichloroacetate (SDA, 1000 μM) was used as a reference PDK-1inhibitor. […]

[3] = Cell viability, LDH release assay, normal HUVECs; conditions: human, normal HUVECs, Mean % of viable cells ± SD, HUVEC
Method: as §1, §2
medium served used as negative and positive controls, respectively. Percentages of viable cells […]
were calculated based on relative optical density (OD) values (at 550 nm) for compound-treated […]
wells (final concentration of 100 μg/mL), compared to the negative control, and expressed as mean value (%) ± SD from two replicates. Graphing dose-response curves representing the compound […]
concentration versus the percentages of viable cells was also conducted to deduce the half - […]
Additionally, the safety profiles of the studied compounds were assessed against normal cells […]
(HUVECs) at final concentration of 100 μg/mL . HUVECs were grown in Dulbecco’s Modified Eagle’s Medium supplemented with 10% FBS, 2 mM glutamine (Sigma Aldrich), 100 units/mL penicillin and […] streptomycin (Life Technologies; Paisley, UK). […]

[4] = DPPH radical scavenging assay; conditions: three independent experiments; read-out: Mean IC50 (mM) for initial DPPH radicals ± SD
Method: The antioxidant activities of the studied compounds were assessed using the 1,1-diphenyl-2-picrylhydrazyl (DPPH) radical scavenging method as detailed by Bersuder et al.. The results were expressed as IC50 (mM)—the concentration of the test compound required to neutralize 50% of DPPH radicals.
The antioxidant efficiencies of target compounds were determined using the 1,1-diphenyl-2-picrylhydrazyl (DPPH) radical scavenging method as detailed by Bersuder et al.. […]
S3.2. Evaluation of Biological Activities.
S3.2.1. In vitro DPPH radical scavenging assay.
The antioxidant efficiencies of compounds—3a−e, 8, 9a−c, 13, 14, 17, 18a−h, 20, 22, 23, and 25—were
determined using the 1,1-diphenyl-2-picrylhydrazyl (DPPH) radical scavenging method as
detailed by Bersuder et al.. Fundamentally, the purple color of the stabilized DPPH radical
fades in the presence of an antioxidant, thus, the change of absorbance can be followed
spectrophotometrically at 519 nm. In the assay, equal volumes (0.5 mL) of DPPH ethanolic solution
and each compound (0-2 mg/mL in DMSO) or butylated hydroxytoluene (BHT) as the reference
were mixed well by shaking. The negative control consisted of the same amount of DMSO and
DPPH solution. After, incubation all mixtures at room temperature in the dark for one hour, the
absorbance of the residual DPPH radicals was measured at 519 nm using the UV‐vis
spectrophotometer. The DPPH radical scavenging activity of each compound (%) was calculated
Scavenging activity = (1 − Acompound/AControl) * 100, where Acompound and Acontrol the absorbance values
of each tested compound (or BHT) and the negative control, respectively. The half maximal
inhibitory concentration (IC50) for each compound in mg/mL was deduced by graphing the dose-
response curve relating the scavenging activity (%) to the compound concentration. Data points
represent the mean ± standard deviation (SD) of three independent determinations.

[5] = tested on: LoVo colon carcinoma cells; assay: Cell viability, LDH release assay, LoVo; conditions: Homo sapiens, LoVo, 48 h; for viability at 100 µg/mL: read-out: Mean % of viable cells ± SD, LoVo, 100 µg/mL, 48 h, LDH release assay; for IC50: read-out: Mean IC50 Values in µM ± SD, LoVo cells
Method: as §1, §2, §3, §4, §5, §6, §7

SMILES | inhibition at 100 µg/mL [1] | IC50 [1] | IC50 [2] | inhibition at 100 µg/mL (PDK-1) | IC50 (PDK-1) | IC50 [4] | IC50 [5] | viability at 100 µg/mL [2] | viability at 48 h, 100 µg/mL [3] | viability at 100 µg/mL [5]
CCOC(=O)Nn1c(C)nc2cc(OC)c(OC)cc2c1=O [Compound 17, Ethyl (6,7-Dimethoxy-2-methyl-4-oxoquinazolin-3(4H)-yl)carbamate] | 5.75 ± 0.35% | 1060 ± 7.64 µM | 302 ± 10.5 µM | 91 ± 2.83% | 169 ± 1.81 µM | 0.307 ± 0.01 mM | 277 ± 0.21 µM | 20.5 ± 2.12% | 96 ± 2.56% | 10.5 ± 0.71%
COc1cc(OC)c(/C=N/n2c(C)nc3cc(OC)c(OC)cc3c2=O)c(OC)c1 [Compound 18a, (E)-6,7-Dimethoxy-2-methyl-3-((2,4,6-trimethoxybenzylidene)amino)quinazolin-4(3H)-one] | 16.6 ± 0.78% |  | 210 ± 2.42 µM | 66.7 ± 1.53% |  | 1.38 ± 0.039 mM | 132 ± 7.4 µM | 40.7 ± 4.16% | 85 ± 1% | 48.3 ± 2.83%
COc1cc2nc(C)n(/N=C/c3ccc(C(F)(F)F)cc3)c(=O)c2cc1OC [Compound 18c, (E)-6,7-Dimethoxy-2-methyl-3-((4-(trifluoromethyl)benzylidene)amino)quinazolin-4(3H)-one] | 21.1 ± 0.99% |  |  | 44.7 ± 1.53% |  | 0.606 ± 0.015 mM |  | 71.3 ± 6.51% | 91.3 ± 2.08% | 63 ± 3%
Cc1nc2ccc(F)cc2c(=O)n1/N=C/c1c(O)ccc2ccccc12 [Compound 18f, (E)-6-Fluoro-3-(((2-hydroxynaphthalen-1-yl)methylene)amino)-2-methylquinazolin-4(3H)-one] | 14.4 ± 1.41% |  |  | 52 ± 3.61% |  | 0.288 ± 0.029 mM |  | 83 ± 3% | 83 ± 1.73% | 73 ± 3.46%
Cc1nc2ccc(F)cc2c(=O)n1/N=C/c1cccs1 [Compound 18h, (E)-6-Fluoro-2-methyl-3-((thiophen-2-ylmethylene)amino)quinazolin-4(3H)-one] | 18.9 ± 1.77% |  | 498 ± 12.6 µM | 37 ± 3.61% |  | 0.379 ± 0.004 mM | 479 ± 19.2 µM | 37 ± 2% | 78 ± 2% | 33 ± 4.24%
CCOC(=O)c1sc(NC(=O)/C(=C/c2ccc(OC(C)=O)c(OC)c2)NC(=O)c2ccccc2)nc1C [Compound 20, Ethyl (Z)-2-(3-(4-Acetoxy-3-methoxyphenyl)-2-benzamido-acrylamido)-4-methylthiazole-5-carboxylate] | 16.9 ± 1.27% |  |  | 28.2 ± 1.06% |  | 0.745 ± 0.027 mM |  | 49 ± 2.83% | 73 ± 2.75% | 51 ± 2.83%

Continued by falling IC50 [4], values first:

inhibition at 100 µg/mL [1] | IC50 [1] | IC50 [2] | inhibition at 100 µg/mL (PDK-1) | IC50 (PDK-1) | IC50 [4] | IC50 [5] | SMILES | viability at 100 µg/mL [2] | viability at 48 h, 100 µg/mL [3] | viability at 100 µg/mL [5]
36.8 ± 1.91% |  |  | 30 ± 1% |  | 0.781 ± 0.046 mM |  | COc1cc(OC)c(/C=N/n2c(C)nc3ccc(F)cc3c2=O)c(OC)c1 [Compound 18e, (E)-6-Fluoro-2-methyl-3-((2,4,6-trimethoxybenzylidene)amino)quinazolin-4(3H)-one] | 87.3 ± 2.08% | 83 ± 3.61% | 88.7 ± 3.21%
12.2 ± 1.98% |  | 238 ± 8.12 µM | 65 ± 3.46% |  | 0.658 ± 0.016 mM | 202 ± 7.82 µM | COc1cc(/C=N/n2c(C)nc3cc(OC)c(OC)cc3c2=O)ccc1O [Compound 18d, (E)-3-((4-Hydroxy-3-methoxybenzylidene)amino)-6,7-dimethoxy-2-methylquinazoli-N-4(3H)-one] | 38 ± 2% | 86.3 ± 1.53% | 30.7 ± 4.24%
37 ± 2.83% | 378 ± 3.98 µM | 293 ± 5.38 µM | 80.5 ± 4.95% | 192 ± 5.57 µM | 0.327 ± 0.007 mM | 292.1 ± 1.17 µM | COc1cc2nc(C)n(C3CCCCC3)c(=O)c2cc1OC [Compound 14, 3-Cyclohexyl-6,7-dimethoxy-2-methylquinazolin-4(3H)-one] | 12.5 ± 0.71% | 95 ± 1.82% | 13 ± 1.14%
22.2 ± 1.13% |  |  | 66 ± 1.73% |  | 0.238 ± 0.006 mM |  | COc1ccc(/C=N/n2c(C)nc3ccc(F)cc3c2=O)cc1O [Compound 18g, (E)-6-Fluoro-3-((3-hydroxy-4-methoxybenzylidene)amino)-2-methylquinazolin-4(3H)-one] | 58.7 ± 3.06% | 88 ± 2.65% | 74.7 ± 2.52%
